The values that follow come from PMC7059199, “Identification and structural insight of an effective PPARγ modulator with improved therapeutic index for anti-diabetic drug discovery” (Chemical Science, 2020).

Test [1] addresses T1, GST-PPARγ LBD (Homo sapiens, UniProt P37231).
T1 construct: 0.5 nM GST-PPARγ LBD was incubated with 5 nM Fluormone™; purchased Invitrogen
T1 sequence (P37231 238-503 limits assumed): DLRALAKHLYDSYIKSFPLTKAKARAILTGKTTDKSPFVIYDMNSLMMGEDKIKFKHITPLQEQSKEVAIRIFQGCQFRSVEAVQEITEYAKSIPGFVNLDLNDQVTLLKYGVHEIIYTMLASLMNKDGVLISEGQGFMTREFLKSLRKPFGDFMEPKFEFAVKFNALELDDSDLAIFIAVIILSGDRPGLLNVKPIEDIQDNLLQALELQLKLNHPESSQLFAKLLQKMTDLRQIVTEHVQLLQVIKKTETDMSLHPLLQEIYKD
As to the kind of experiment: LanthaScreen TR-FRET competitive binding assay, PPARγ.
Procedure: LanthaScreen™ TR-FRET assay (Invitrogen) was used for measuring the binding affinities of the ligands. 0.5 nM GST-PPARγ LBD was incubated with 5 nM Fluormone™ and Terbium-coated GST antibody.
Competitive TR -FRET binding assay
The GST PPARγ -LBD was labeled with a terbium-linked antibody and a fluorescent small molecule pan-PPAR ligand (Fluormone™ Pan-PPAR Green, Invitrogen) was used as a tracer that is displaced from the ligand binding domain upon agonist binding.
Tracer displacment results is a loss of FRET signal between the terbium label and the fluorescent tracer.
Cheng-Prusoff equation as following:
the tracer, [tracer] is the concentration of Fluormone™ Pan-PPAR Green used in the
(average±standard deviation calculated from three separate experiments).

Test [2] has as its target T2, full-length hPPARγ (Homo sapiens, UniProt P37231).
T2 construct: 50 ng of full-length hPPARγ plasmids; expressed in transfected cells; host or cells: Cos-7 cells (ATCC)
T2 sequence (P37231 1-505): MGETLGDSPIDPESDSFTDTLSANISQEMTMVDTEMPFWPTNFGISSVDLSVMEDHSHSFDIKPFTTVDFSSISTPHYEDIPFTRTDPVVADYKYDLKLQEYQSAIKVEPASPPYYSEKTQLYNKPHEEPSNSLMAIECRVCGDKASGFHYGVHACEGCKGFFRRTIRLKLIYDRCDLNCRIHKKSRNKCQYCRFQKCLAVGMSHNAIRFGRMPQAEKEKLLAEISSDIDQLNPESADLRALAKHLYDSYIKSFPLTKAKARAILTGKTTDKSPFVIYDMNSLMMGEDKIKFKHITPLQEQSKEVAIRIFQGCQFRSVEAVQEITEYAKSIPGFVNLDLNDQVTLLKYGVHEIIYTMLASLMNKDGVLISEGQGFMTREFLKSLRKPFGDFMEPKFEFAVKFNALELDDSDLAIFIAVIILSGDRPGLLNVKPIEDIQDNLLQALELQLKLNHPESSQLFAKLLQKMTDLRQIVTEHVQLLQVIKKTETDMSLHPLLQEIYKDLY
As to the kind of experiment: PPARγ-activated luciferase reporter (transactivation) assay in Cos-7 cells. In kind it is cell-based. Conditions: at 33 μM and 100 μM. As for the experimental part: Fig. 3 Luciferase reporter assay of PPARγ activation in Cos-7 cells. The luciferase activity was normalized against renilla luciferase units. Fold activation was calculated against DMSO with no ligand treatment. […] Concentration is represented as log10 scale (n = 3, error bars = SEM). […]
and 25 mM of imidazole) per 6 liters of cells, and passed three times through a French press with pressure set at […]. The lysate was cleared by centrifugation at 48,000 x g for 30 minutes and the supernatant was purified by loading on 2x5 mL HiLoad Nickel HP columns (GE Healthcare). The 6×His SUMO tag was removed by cleavage with the Sumo protease Ulp1 at a protease: protein ratio of 1:1000), and the tag was separated from the PPARγ LBD by a second pass through the Nickel column. PPARγ monomer was further purified by gel filtration (HiLoad 26/60 Superdex 200 (GE Healthcare)) with 20 mM of Tris (pH 8.0), 100 mM of NaCl, and 5 mM of DTT as buffer. The PPARγ LBD protein was complexed with PGC1α1 peptide […]
([…]) at a 1:1.2 molar ratio and with compound at a 1:5 molar ratio and then filter-concentrated to 10 mg/mL.
Cell-based transactivation assay […]
Excitation of the terbium at 340 nm results in FRET to the fluorescent tracer, with emissions detected at 520 nm and 495 nm. […]
The inhibition constant (ki) for a competitor was calculated by applying the […]
On the technique in general: Reporter assays use an easily measured gene product as a stand-in for the process of interest.

The target in test [3] is T3, PPARδ (Homo sapiens, UniProt Q03181).
T3 sequence (Q03181 1-441): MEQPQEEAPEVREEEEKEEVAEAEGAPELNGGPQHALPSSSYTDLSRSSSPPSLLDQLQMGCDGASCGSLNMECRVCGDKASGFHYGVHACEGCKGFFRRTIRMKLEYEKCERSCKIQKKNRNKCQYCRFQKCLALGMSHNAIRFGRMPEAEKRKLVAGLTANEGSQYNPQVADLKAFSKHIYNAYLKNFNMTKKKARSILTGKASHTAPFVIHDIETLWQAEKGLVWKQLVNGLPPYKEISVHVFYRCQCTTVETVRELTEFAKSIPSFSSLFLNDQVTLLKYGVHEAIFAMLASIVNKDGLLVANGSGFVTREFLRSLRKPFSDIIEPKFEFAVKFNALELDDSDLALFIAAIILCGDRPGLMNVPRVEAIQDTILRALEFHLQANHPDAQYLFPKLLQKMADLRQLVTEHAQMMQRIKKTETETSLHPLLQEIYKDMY
Nature of the test: Competitive TR-FRET assay, PPARδ. Conditions: even at 100 μM. In general terms: In TR-FRET formats the signal depends on donor and acceptor labels being close together.

By Ki is commonly meant the equilibrium dissociation constant of an inhibitor or competing ligand from its target. Consider `CCCCCCCC(OCC(=O)O)c1ccc(Cl)cc1` (centres unmarked) [VSP-77], for which the “binding to PPARγ (in words)” value in test [1] (at 10 μM) is recorded as “potent binding affinity”. In test [1] (competition of Fluormone (5 nM), 0.5 nM GST-PPARγ LBD), this compound gave a Ki of 4.8 µM. Besides, the “binding affinity for PPARγ relative to DA” value in test [1] (higher than DA) is “about 10 fold”. Also, the “agonistic activity (fold activation of luciferase reporter)” value in test [2] is recorded as “weakly agonistic”. Besides, the “effect on PPARδ (in words)” value in test [3] is listed as “no obvious effects”.
